{
  "source": "ChEMBL document CHEMBL5393442",
  "about": "“Combined inhibition of amino acid transporters for inhibiting human plasmacytoid dendritic cell activity during autoimmunity” (2022)",
  "key": {"[1]": {"target": "T1, Cystine/glutamate transporter (Homo sapiens, UniProt Q9UPY5)", "T1 sequence (Q9UPY5 whole entry)": "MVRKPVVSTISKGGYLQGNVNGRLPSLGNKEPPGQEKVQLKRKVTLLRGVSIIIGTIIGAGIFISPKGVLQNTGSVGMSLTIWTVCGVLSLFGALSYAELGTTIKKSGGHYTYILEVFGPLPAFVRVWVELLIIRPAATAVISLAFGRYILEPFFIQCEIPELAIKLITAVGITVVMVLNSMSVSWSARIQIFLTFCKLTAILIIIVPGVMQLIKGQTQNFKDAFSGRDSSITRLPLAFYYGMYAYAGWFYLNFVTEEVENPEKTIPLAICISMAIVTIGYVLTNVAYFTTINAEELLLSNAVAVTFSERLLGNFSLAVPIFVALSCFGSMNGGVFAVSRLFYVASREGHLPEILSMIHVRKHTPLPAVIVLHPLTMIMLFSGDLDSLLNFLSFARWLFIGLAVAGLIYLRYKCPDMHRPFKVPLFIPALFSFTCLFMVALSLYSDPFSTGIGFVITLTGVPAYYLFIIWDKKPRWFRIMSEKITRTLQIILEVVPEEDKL", "assay": "Inhibition of XCT (unknown origin)"}, "[2]": {"target": "Tyrosine-protein kinase JAK2 (Homo sapiens) (UniProt O60674)", "sequence (O60674 whole entry)": "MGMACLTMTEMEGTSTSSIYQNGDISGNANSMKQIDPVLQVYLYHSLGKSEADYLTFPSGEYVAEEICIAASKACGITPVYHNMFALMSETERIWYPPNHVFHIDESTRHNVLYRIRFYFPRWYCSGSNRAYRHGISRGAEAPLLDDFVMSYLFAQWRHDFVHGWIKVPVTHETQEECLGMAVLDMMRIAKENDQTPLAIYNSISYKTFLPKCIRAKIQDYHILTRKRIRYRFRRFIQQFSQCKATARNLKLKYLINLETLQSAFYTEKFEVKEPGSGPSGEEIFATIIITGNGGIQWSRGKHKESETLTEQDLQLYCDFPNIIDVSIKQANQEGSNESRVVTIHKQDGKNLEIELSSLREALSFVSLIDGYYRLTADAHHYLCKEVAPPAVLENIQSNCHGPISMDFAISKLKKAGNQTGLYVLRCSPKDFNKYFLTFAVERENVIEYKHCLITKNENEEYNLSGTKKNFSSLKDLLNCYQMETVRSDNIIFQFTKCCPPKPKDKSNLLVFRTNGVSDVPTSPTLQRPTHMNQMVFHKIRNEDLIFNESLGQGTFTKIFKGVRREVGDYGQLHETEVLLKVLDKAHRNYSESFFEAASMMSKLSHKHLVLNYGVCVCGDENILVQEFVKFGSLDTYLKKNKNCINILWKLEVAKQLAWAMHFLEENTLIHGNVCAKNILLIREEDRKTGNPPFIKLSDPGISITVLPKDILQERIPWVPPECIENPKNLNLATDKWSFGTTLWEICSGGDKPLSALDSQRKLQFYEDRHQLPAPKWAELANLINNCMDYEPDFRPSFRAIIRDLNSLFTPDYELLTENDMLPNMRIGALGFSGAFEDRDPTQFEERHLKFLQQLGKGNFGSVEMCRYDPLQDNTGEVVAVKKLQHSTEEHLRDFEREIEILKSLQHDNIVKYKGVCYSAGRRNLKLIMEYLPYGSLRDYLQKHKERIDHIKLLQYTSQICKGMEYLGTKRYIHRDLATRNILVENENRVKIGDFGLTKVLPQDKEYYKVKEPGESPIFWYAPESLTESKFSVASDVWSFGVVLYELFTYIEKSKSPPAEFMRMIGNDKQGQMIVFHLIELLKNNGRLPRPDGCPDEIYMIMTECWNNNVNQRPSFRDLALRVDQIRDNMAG", "assay": "Inhibition of JAK2 in TLR9-activated human plasmacytoid dendritic cells at 20 nM assessed as decrease in CpG-A stimulated SLC7A11 expression", "assay_type": "cell-based", "conditions": "Plasmacytoid dendritic cell"}, "[3]": {"target": "Tyrosine-protein kinase JAK2 (Homo sapiens) (UniProt O60674)", "assay": "Inhibition of JAK2 in IL3- and CpG-A-activated human plasmacytoid dendritic cells at 20 nM assessed as decrease in ENPP2/IFNA2 expression", "assay_type": "cell-based", "conditions": "Plasmacytoid dendritic cell"}, "[4]": {"target": "Tyrosine-protein kinase JAK2 (Homo sapiens) (UniProt O60674)", "assay": "Inhibition of JAK2 in IL3- and CpG-A-activated human plasmacytoid dendritic cells at 20 nM assessed as decrease in MYO1E/IFNA2 expression", "assay_type": "cell-based", "conditions": "Plasmacytoid dendritic cell"}, "[5]": {"target": "T2, mTORC1 (Homo sapiens) (UniProt P42345+Q8N122+Q9BVC4)", "T2 sequence (Q8N122 whole entry, looked up, other chains not shown)": "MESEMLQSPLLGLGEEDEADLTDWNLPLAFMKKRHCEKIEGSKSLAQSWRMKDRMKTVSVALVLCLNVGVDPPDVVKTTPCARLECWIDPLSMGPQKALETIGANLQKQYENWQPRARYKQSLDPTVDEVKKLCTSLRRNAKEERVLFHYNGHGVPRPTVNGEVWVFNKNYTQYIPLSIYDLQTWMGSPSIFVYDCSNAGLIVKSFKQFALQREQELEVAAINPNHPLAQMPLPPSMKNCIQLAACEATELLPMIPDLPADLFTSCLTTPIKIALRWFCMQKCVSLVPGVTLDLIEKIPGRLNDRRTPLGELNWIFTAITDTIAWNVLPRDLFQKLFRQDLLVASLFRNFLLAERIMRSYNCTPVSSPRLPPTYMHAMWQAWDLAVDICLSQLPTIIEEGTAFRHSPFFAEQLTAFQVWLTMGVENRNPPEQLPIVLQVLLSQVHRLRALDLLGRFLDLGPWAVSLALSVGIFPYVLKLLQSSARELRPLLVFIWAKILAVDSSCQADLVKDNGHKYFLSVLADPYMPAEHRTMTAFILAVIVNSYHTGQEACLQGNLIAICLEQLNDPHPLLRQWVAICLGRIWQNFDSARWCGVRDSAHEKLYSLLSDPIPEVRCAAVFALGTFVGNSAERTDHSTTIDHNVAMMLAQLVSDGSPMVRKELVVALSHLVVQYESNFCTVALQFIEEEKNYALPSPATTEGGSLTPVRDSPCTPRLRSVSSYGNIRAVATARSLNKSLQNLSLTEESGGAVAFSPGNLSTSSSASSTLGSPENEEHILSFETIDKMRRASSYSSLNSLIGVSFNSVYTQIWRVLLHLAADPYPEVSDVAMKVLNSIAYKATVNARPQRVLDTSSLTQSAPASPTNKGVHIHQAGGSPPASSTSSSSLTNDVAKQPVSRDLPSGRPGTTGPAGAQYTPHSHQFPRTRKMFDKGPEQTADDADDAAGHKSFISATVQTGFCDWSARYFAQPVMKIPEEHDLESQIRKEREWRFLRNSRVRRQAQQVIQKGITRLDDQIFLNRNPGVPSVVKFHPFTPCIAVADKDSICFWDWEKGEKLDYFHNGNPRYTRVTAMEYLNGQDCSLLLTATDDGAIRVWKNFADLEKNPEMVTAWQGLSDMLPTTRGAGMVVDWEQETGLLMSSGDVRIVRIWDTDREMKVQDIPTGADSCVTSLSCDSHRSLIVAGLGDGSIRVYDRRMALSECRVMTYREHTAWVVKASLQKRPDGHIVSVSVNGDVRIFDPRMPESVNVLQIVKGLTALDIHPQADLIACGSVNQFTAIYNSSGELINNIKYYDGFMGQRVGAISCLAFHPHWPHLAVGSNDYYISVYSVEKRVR", "T2 sequence (Q9BVC4 whole entry, looked up, other chains not shown)": "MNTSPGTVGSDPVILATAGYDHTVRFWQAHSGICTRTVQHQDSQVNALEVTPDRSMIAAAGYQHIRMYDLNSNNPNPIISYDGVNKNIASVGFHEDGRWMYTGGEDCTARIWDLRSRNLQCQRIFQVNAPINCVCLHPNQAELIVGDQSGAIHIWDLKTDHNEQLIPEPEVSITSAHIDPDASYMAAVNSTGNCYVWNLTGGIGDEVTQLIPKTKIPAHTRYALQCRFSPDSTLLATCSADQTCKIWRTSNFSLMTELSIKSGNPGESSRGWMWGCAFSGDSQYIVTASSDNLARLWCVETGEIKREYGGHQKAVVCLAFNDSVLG", "conditions": "Plasmacytoid dendritic cell, dose 250.0 nM", "description": "Inhibition of mTORC1 in CpG-A-stimulated human plasmacytoid dendritic cells at 250 nM assessed as decrease in lactate release"}, "[6]": {"target": "T2, mTORC1 (Homo sapiens)", "conditions": "Plasmacytoid dendritic cell, dose 20.0 nM", "description": "Inhibition of mTORC1 in CpG-A-stimulated human plasmacytoid dendritic cells at 20 nM assessed as decrease in lactate release"}, "[7]": {"target": "T3, Cystine/glutamate transporter (Homo sapiens) (UniProt Q9UPY5)", "T3 sequence (whole entry)": "T1 sequence (Q9UPY5 whole entry)", "assay": "Inhibition of XCT in CpG-A-activated human plasmacytoid dendritic cells at 5 uM assessed as decrease in IFN-alpha production", "assay_type": "cell-based", "conditions": "Plasmacytoid dendritic cell"}, "[8]": {"target": "T3, Cystine/glutamate transporter (Homo sapiens)", "assay": "Inhibition of XCT in CpG-A-activated human plasmacytoid dendritic cells at 5 uM assessed as decrease in TNF production", "assay_type": "cell-based", "conditions": "Plasmacytoid dendritic cell"}, "[9]": {"target": "T3, Cystine/glutamate transporter (Homo sapiens)", "assay": "Inhibition of XCT in CpG-A-activated human plasmacytoid dendritic cells at 5 uM assessed as decrease in S6 phosphorylation", "assay_type": "cell-based", "conditions": "Plasmacytoid dendritic cell"}, "[10]": {"target": "T3, Cystine/glutamate transporter (Homo sapiens)", "assay": "Inhibition of XCT in CpG-A-activated human plasmacytoid dendritic cells at 5 uM assessed as decrease in kynurenine uptake", "assay_type": "cell-based", "conditions": "Plasmacytoid dendritic cell"}, "[11]": {"target": "T3, Cystine/glutamate transporter (Homo sapiens)", "assay": "Inhibition of XCT in CpG-A-activated human plasmacytoid dendritic cells at 1 uM assessed as decrease in IFN-alpha production", "assay_type": "cell-based", "conditions": "Plasmacytoid dendritic cell"}, "[12]": {"target": "T3, Cystine/glutamate transporter (Homo sapiens)", "assay": "Inhibition of XCT in CpG-A-activated human plasmacytoid dendritic cells at 1 uM assessed as decrease in TNF production", "assay_type": "cell-based", "conditions": "Plasmacytoid dendritic cell"}, "[13]": {"target": "T3, Cystine/glutamate transporter (Homo sapiens)", "assay": "Inhibition of XCT in CpG-A-activated human plasmacytoid dendritic cells at 10 uM assessed as decrease in ENPP2 expression", "assay_type": "cell-based", "conditions": "Plasmacytoid dendritic cell"}, "[14]": {"target": "T3, Cystine/glutamate transporter (Homo sapiens)", "assay": "Inhibition of XCT in CpG-A-activated human plasmacytoid dendritic cells at 10 uM assessed as decrease in MYO1E expression", "assay_type": "cell-based", "conditions": "Plasmacytoid dendritic cell"}, "[15]": {"target": "Large neutral amino acids transporter small subunit 1 (Homo sapiens) (UniProt Q01650)", "sequence (Q01650 whole entry)": "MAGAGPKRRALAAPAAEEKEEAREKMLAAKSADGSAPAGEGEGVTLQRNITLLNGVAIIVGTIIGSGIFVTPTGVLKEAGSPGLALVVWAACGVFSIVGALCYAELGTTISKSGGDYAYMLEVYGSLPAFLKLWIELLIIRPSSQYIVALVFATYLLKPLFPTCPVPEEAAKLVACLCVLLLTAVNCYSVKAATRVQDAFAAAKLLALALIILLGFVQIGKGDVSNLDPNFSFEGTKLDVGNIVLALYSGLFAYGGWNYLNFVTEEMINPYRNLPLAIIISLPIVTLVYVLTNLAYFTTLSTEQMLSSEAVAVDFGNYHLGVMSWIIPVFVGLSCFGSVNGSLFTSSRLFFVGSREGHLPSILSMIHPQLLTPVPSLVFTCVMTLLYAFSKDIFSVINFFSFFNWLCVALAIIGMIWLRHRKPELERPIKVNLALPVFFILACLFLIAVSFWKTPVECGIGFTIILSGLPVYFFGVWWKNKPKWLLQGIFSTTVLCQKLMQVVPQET", "assay": "Inhibition of human LAT1 at 100 uM relative to control"}, "[16]": {"test_system": "Plasmacytoid dendritic cell", "assay": "Inhibition of SLC7A5/SLC3A2 in CpG-A-stimulated human plasmacytoid dendritic cells at 10 uM assessed as decrease in kynurenine transport", "assay_type": "cell-based"}, "[17]": {"test_system": "Plasmacytoid dendritic cell", "assay": "Inhibition of F1F0-ATP synthase in human plasmacytoid dendritic cells at 1 uM assessed as decrease in IFN-alpha production", "assay_type": "cell-based"}, "[18]": {"test_system": "Plasmacytoid dendritic cell", "assay": "Inhibition of F1F0-ATP synthase in human plasmacytoid dendritic cells at 1 uM assessed as decrease in TNF production", "assay_type": "cell-based"}, "[19]": {"test_system": "Plasmacytoid dendritic cell", "assay": "Inhibition of F1F0-ATP synthase in CpG-A-stimulated human plasmacytoid dendritic cells at 1 uM assessed as reduction in IFN-alpha production in presence of 10 uM heptelidic acid", "assay_type": "cell-based"}, "[20]": {"test_system": "Plasmacytoid dendritic cell", "assay": "Inhibition of F1F0-ATP synthase in CpG-A-stimulated human plasmacytoid dendritic cells at 1 uM assessed as reduction in TNF production in presence of 10 uM heptelidic acid", "assay_type": "cell-based"}},
  "note": "Activity calls are given as the source filed them. The rule behind the calls is not given here.",
  "data": [
    {"smiles": "Nc1c(/N=N/c2ccc(I)cc2)cc(S(=O)(=O)O)c2ccccc12", "values": [
      {"measurement": "IC50", "setting": "[1]", "result": 14, "unit": "µM"}
    ]},
    {"smiles": "CO[C@H]1CC2CC[C@@H](C)[C@@](O)(O2)C(=O)C(=O)N2CCCC[C@H]2C(=O)O[C@H]([C@H](C)C[C@@H]2CC[C@@H](O)[C@H](OC)C2)CC(=O)[C@H](C)/C=C(\\C)[C@@H](O)[C@@H](OC)C(=O)[C@H](C)C[C@H](C)/C=C/C=C/C=C/1C", "values": [
      {"measurement": "inhibition", "setting": "[2]", "result": "Active"},
      {"measurement": "inhibition", "setting": "[3]", "result": "Active"},
      {"measurement": "inhibition", "setting": "[4]", "result": "Active"},
      {"measurement": "inhibition", "setting": "[5]", "result": "Active"},
      {"measurement": "inhibition", "setting": "[6]", "result": "Active"}
    ]},
    {"smiles": "CCOc1ccccc1-n1c(C(C)N2CCN(C(=O)COc3ccc(Cl)cc3)CC2)nc2ccccc2c1=O", "note": "(configuration not stated)", "values": [
      {"measurement": "inhibition", "setting": "[7]", "result": "Active"},
      {"measurement": "inhibition", "setting": "[8]", "result": "Active"},
      {"measurement": "inhibition", "setting": "[9]", "result": "Active"},
      {"measurement": "inhibition", "setting": "[10]", "result": "Active"},
      {"measurement": "inhibition", "setting": "[11]", "result": "Active"},
      {"measurement": "inhibition", "setting": "[12]", "result": "Active"},
      {"measurement": "inhibition", "setting": "[13]", "result": "Active"},
      {"measurement": "inhibition", "setting": "[14]", "result": "Active"}
    ]},
    {"smiles": "Nc1c(/N=N/c2ccc(SSc3ccc(/N=N/c4cc(S(=O)(=O)O)c5ccccc5c4N)cc3)cc2)cc(S(=O)(=O)O)c2ccccc12", "values": [
      {"measurement": "IC50", "setting": "[1]", "result": 4.3, "unit": "µM"}
    ]},
    {"smiles": "FC(F)(F)Oc1ccc(/N=c2\\ssnc2Cl)cc1Cl", "values": [
      {"measurement": "inhibition", "setting": "[15]", "result": "> 90", "unit": "%"}
    ]},
    {"smiles": "NC1(C(=O)O)CC2CCC1C2", "note": "(configuration not stated)", "values": [
      {"measurement": "inhibition", "setting": "[16]", "result": "Active"}
    ]},
    {"smiles": "CC[C@H]1/C=C/C=C/C[C@@H](C)[C@H](O)[C@@](C)(O)C(=O)[C@@H](C)[C@H](O)[C@@H](C)C(=O)[C@@H](C)[C@H](O)[C@@H](C)/C=C/C(=O)O[C@@H]2[C@H](C)[C@H](CC1)O[C@]1(CC[C@H](C)[C@H](C[C@@H](C)O)O1)[C@H]2C", "values": [
      {"measurement": "inhibition", "setting": "[17]", "result": "Active"},
      {"measurement": "inhibition", "setting": "[18]", "result": "inactive"},
      {"measurement": "inhibition", "setting": "[19]", "result": "Active"},
      {"measurement": "inhibition", "setting": "[20]", "result": "Active"}
    ]},
    {"smiles": "Nc1c(/N=N/c2ccc(Oc3ccc(/N=N/c4cc(S(=O)(=O)O)c5ccccc5c4N)cc3)cc2)cc(S(=O)(=O)O)c2ccccc12", "values": [
      {"measurement": "IC50", "setting": "[1]", "result": 11, "unit": "µM"}
    ]}
  ]
}
